Reference: patent US20230332232A1, “COMPOSITIONS AND METHODS FOR DIAGNOSING AND TREATING A DYSTONIA” (Duke University, priority 2020, published 2023)

Test system: DYT1 knockin (Tor1a^delGAG/+) murine embryonic fibroblasts (MEFs)
Test: Untargeted LC/MS/MS proteomics of EVs from DYT1 MEFs exposed 24 hours to drug, compared with untreated DYT1 (Het) MEFs
Format: cell-based, mouse
Description: Methods for isolation and purification of exosomes and extracellular vesicles (EV) were extensively reviewed. Experiments were performed to arrive at a robust and reproducible protocol. The protocol used herein is that set forth in Théry et al, 2006, which is incorporated by reference for it teaching of this protocol. This protocol involves depleting serum-derived EVs from cell culture media by overnight ultracentrifugation and exchanging media for 1% FBS EV-depleted media. Media is then collected from cells following a 24-hour conditioning period and EVs are isolated by 18-hour ultracentrifugation at 100,000 g (FIG. 1A).
EVs were isolated from media of cultured murine embryonic fibroblasts (MEFs) prepared in-house according to protocols described by Xu 2005 from DYT1 knockin mice (Tor1a^delGAG/+) (Goodchild R E, et al. (2005) Neuron. 48:923-932) and littermate wild-type (WT) controls. The cultured MEFs from the DYT1 mice were exposed for 24 hours to Ritonavir (RTV) while the MEFs from WT mice were exposed to vehicle, ISRIB, or Salubrinal (SAL). The EVs isolated from these WT cells and DYT1 were characterized by untargeted proteomics and RNA-seq to identify differentially expressed proteins and RNAs as candidate biomarkers. Experimenter and Proteomics core staff were blinded to genotype of cell cultures throughout preparation and analysis phases.
Samples were first normalized to 20 μg and spiked with undigested casein at a total of 40 fmol/μg, 80 fmol/μg, or 160 fmol/μg, then reduced with 10 mM dithiolthreitol for 30 minute at 80° C. and alkylated with 20 mM iodoacetamide for 30 minutes at room temperature. Next, the samples were supplemented with a final concentration of 1.2% phosphoric acid and 741 μL of S-Trap (Protifi) binding buffer (90% MeOH/100 mM […]). Proteins were trapped on the S-Trap, digested using 20 ng/μL sequencing grade trypsin (Promega) for 1 hour at 47° C., and eluted using 50 mM TEAB, followed by 0.2% FA, and lastly using 50% CAN/0.2% FA. All samples were then lyophilized to dryness and resuspended in 40 μL 1% TFA/2% acetonitrile containing 12.5 fmol/μL yeast alcohol dehydrogenase (ADH_YEAST). A QC Pool was created from 3 uL of each sample. All QC Pools were run periodically throughout the acquisition period.
Quantitative LC/MS/MS was performed on 2 μL of each sample, using a nanoAcquity UPLC system (Waters Corp) coupled to a Thermo Orbitrap Fusion Lumos high resolution accurate mass tandem mass spectrometer (Thermo) via a nanoelectrospray ionization source. Briefly, the sample was first trapped on a Symmetry C18 20 mm×180 μm trapping column (5 μL/min at 99.9/0.1 v/v water/acetonitrile), after which the analytical separation was performed using a 1.8 μm Acquity HSS T3 C18 75 μm×250 mm column (Waters Corp.) with a 90 minute linear gradient of 5% to 30% acetonitrile with 0.1% formic acid at a flow rate of 400 nanoliters/minute (nL/min) with a column temperature of 55° C. Data collection on the Fusion Lumos mass spectrometer was performed in a data-dependent acquisition (DDA) mode of acquisition with a r=120,000 (@ m/z 200) full MS scan from m/z 375-1500 with a target AGC value of 2e5 ions. MS/MS scans were acquired at Rapid scan rate (Ion Trap) with an AGC target of 5e3 ions and a max injection time of 100 ms. The total cycle time for MS and MS/MS scans was 2 seconds. A 20 second dynamic exclusion was employed to increase depth of coverage. The total analysis cycle time for each sample injection was approximately 2 hours.

Measured: SAL Direction Opposite ISRIB?

O=C(/C=C/c1ccccc1)NC(NC(=S)Nc1cccc2cccnc12)C(Cl)(Cl)Cl (stereo not shown) [SAL, Salubrinal]
yes: DYT1 (Het) MEF EVs, protein: DNA replication licensing factor MCM6 | DYT1 (Het) MEF EVs, protein: DNA-directed RNA polymerases I and III subunit RPAC1 | DYT1 (Het) MEF EVs, protein: Protein arginine N-methyltransferase 3 | DYT1 (Het) MEF EVs, protein: Scavenger receptor class B member 1 | DYT1 (Het) MEF EVs, protein: Serine threonine-protein phosphatase 2A 55 kDa regulatory subunit B alpha isoform | DYT1 (Het) MEF EVs, protein: Small nuclear ribonucleoprotein-associated protein B | EV protein: 26S proteasome non-ATPase regulatory subunit 8 | EV protein: 60S [?] subunit biogenesis protein [?] homolog | EV protein: 60S ribosomal protein [?] | EV protein: 116 kDa [?] small nuclear ribonucleoprotein component | EV protein: AP-3 complex subunit [?] | EV protein: ATP-dependent RNA helicase [?] | EV protein: Acyl-protein thioesterase 2 | EV protein: Anaphase-promoting complex subunit 2 | EV protein: Anaphase-promoting complex subunit 5 | EV protein: Apolipoprotein M | EV protein: Calnexin | EV protein: Cell [?] cycle protein [?] homolog | EV protein: Coiled-coil domain-containing protein 22 | EV protein: Cullin-2 | EV protein: Cullin-5 | EV protein: Cullin-7 | EV protein: DNA [?] (r264) | EV protein: DNA ligase 1 | EV protein: DNA replication licensing factor [?] | EV protein: DNA-directed RNA polymerase II subunit RPB1 | EV protein: DNA-directed RNA polymerase II subunit RPB2 | EV protein: DNA-directed RNA polymerase II subunit RPB3 | EV protein: DNA-directed RNA polymerases I, II, and III subunit RPABC3 | EV protein: DNA-directed RNA polymerases I, II, and III subunit [?] | EV protein: Double-strand-break repair protein rad21 homolog | EV protein: Elongin-B | EV protein: Exosome complex exonuclease RRP44 | EV protein: Extended synaptotagmin-1 | EV protein: Gamma-tubulin complex component 2 | EV protein: General vesicular transport factor p115 | EV protein: Glycosylated lysosomal membrane protein | EV protein: Glycylpeptide N-tetradecanoyltransferase 1 | EV protein: Golgi reassembly-stacking protein 2 | EV protein: Histone-arginine methyltransterase CARM1 | EV protein: Importin-7 | EV protein: Leucyl-cystinyl aminopeptidase | EV protein: Mediator [?] RNA polymerase II transcription subunit 23 | EV protein: Metastasis-associated protein [?] (r222) | EV protein: Metastasis-associated protein [?] (r261) | EV protein: Microtubule-associated protein [?] | EV protein: Nuclear [?] complex protein [?] | EV protein: Nuclear cap-binding protein subunit 1 | EV protein: Nuclear receptor-binding protein | EV protein: Phosphoribosyl pyrophosphate synthase-associated protein 1 | EV protein: Pigment epithelium-derived factor | EV protein: Protein O-GlcNAcase | EV protein: Protein [?] 14 homolog | EV protein: Protein [?] (r160) | EV protein: Ran-binding protein 10 | EV protein: Ribosome biogenesis protein BOP1 | EV protein: Ribosome production factor 2 homolog | EV protein: Serine threonine-protein phosphatase 6 catalytic subinit | EV protein: Sorting nexin-1 | EV protein: Trascriptional activator protein [?] -alpha | EV protein: WD repeat-containing protein [?] | EV protein: [?] -1 (r154) | EV protein: [?] -1 (r232) | EV protein: [?] -conjucating enxyme [?] | EV protein: [?] kinase | EV protein: [?] myosin- [?] | EV protein: [?] repeat-containing protein 5A | EV protein: [?] small nuclear ribonucleoprotein 40 kDa protein | EV protein: p21-activated protein kinase-interacting protein 1 | EV protein: transportin-3
